Measured values taken from paper PMC10949639, “Engineering Escherichia coli for high-yielding 2,5-Dimethylpyrazine synthesis from L-Threonine by reconstructing metabolic pathways and enhancing cofactors regeneration” (Biotechnology for Biofuels and Bioproducts, 2024).

Columns and labels:
[1] = target: T1, EcTDH (L-threonine dehydrogenase) (Escherichia coli, UniProt P07913); assay: NADH formation at […] nm, lysate supernatant; format: biochemical; settings: 100 mM Tris-HCl pH 9.0, 100 mM L-threonine, 50 mM NAD+, 30 °C
T1 construct: gene tdh; recombinant from pACYCDuet-1 (BamH I/Hind III) in E. coli BL21(DE3); crude lysate supernatant; gene about 1100 bp
T1 sequence (P07913 1-341): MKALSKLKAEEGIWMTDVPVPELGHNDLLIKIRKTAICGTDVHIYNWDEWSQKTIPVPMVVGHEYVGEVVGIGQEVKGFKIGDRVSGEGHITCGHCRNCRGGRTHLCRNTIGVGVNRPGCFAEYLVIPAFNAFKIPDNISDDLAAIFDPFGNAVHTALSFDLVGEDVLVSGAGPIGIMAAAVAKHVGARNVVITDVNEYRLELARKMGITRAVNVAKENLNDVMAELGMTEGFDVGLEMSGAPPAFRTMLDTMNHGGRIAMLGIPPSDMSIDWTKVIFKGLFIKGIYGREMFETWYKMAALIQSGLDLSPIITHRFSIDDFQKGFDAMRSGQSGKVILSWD

EhNOX (NADH oxidase) = target: T2, EhNOX (NADH oxidase) (Enterococcus hirae, UniProt I6S3N3); assay: NADH consumption, lysate supernatant; format: biochemical; settings: 200 μM NADH, 10 μM FAD, 1 mM dithiothreitol, 20 mM citrate-sodium citrate pH 5.6
T2 construct: gene EHR_12315; recombinant from pACYCDuet-1-Ectdh-Ehnox (Nde I/Xho I) in E. coli BL21(DE3), co-expressed with EcTDH; crude lysate supernatant; gene about 1400 bp
T2 sequence (I6S3N3 1-450): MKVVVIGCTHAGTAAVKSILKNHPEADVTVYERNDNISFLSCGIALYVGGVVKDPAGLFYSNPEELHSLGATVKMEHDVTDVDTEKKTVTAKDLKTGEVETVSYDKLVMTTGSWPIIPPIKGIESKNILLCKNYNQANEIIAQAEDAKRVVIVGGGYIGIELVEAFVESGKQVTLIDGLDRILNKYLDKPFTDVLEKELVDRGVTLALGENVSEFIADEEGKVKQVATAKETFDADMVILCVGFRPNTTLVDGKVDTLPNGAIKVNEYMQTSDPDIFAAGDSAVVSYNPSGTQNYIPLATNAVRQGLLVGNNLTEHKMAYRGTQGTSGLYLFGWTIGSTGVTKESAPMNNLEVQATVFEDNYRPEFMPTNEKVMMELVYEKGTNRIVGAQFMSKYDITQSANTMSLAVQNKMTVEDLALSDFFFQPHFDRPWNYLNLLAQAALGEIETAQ

Row | SMILES | NADH formation at 340 nm, lysate supernatant [1] | NADH consumption, lysate supernatant (EhNOX (NADH oxidase))
1 | C[C@@H](O)[C@H](N)C(=O)O [L-threonine] | The enzyme activity of EcTDH was determined using L-threonine as the substrate | 
2 | NC(=O)C1=CN([C@@H]2O[C@H](COP(=O)(O)OP(=O)(O)OC[C@H]3O[C@@H](n4cnc5c(N)ncnc54)[C@H](O)[C@@H]3O)[C@@H](O)[C@H]2O)C=CC1 [NADH] |  | The enzyme activity of EhNOX was determined using NADH as substrate
